Reference: patent US10282514B2, “Method of constructing a data architecture” (The Procter & Gamble Company, priority 2012, dated 2019)

Columns and labels:
hyperpigmented spots = assay: 9-week randomized, double-blind, vehicle-controlled, split-face tone benefit study; assay type: in vivo, human; details: 0.05% in SC-99 vehicle, compared to vehicle
Description: This Example provides evidence of the advantages of using composite signatures and illustrates clinical affirmation of the C-map model for predicting efficacy of skin-lightening agents. This Example supports embodiments related to composite signatures (as described at the end of Example 3). An illustrative “Skin Tone” Signature developed from a genomics study using a composite skin-lightening benchmark agent signature is derived from Niacinamide, Hexamidine, Sepiwhite, and NAG. The signature is used to query C-map and generate a list of potential skin-lightening agents. A top hit, Chlorhexidine Diactate (CD) is entered into clinical testing for confirmation of efficacy. The control for clinical efficacy is a 5% Niacinamide+1% Sepiwhite formulation in the control vehicle.
Primary endpoints are changes in color spot area fraction (image analysis) and melanin spot area fraction (NC2) from baseline. Secondary endpoints are changes from baseline in L*a*b (color image analysis), mean melanin gray scale (NC2), and melanin evenness (NC2). Texture area fraction and pore area fraction are also evaluated to explore impact on other aspects relating to overall skin tone. […] Statistically significant superiority to the high efficacy benchmark skin active agent to vehicle performance is the clinical success criteria.
Study Design: The experimental protocol included a 9-week (1-week preconditioning & 8-week treatment), randomized, double-blind, round robin, vehicle-controlled, split-face tone benefit study. The subject population included 330 Chinese females, 25-55 years old with hyperpigmented spots. 318 subjects completed the entire study. […] Olay Complete SPF 15 UV Moisturizing Lotion is concomitantly used during pre-conditioning and treatment. 0.5 g each test product per half-face (forehead to jaw line; ˜4 mg/cm^2) is dosed 2× a day (morning/evening). Color SAF and treatment area, Melanin SAF, gray scale, evenness by NC2, and additional measurement of Fine Lines and Wrinkle and Texture are by REAL 3.01A. Data collection points include baseline, and ends of weeks 4, 6 and 8. […]

[1] = tested on: tert-Keratinocyte (tKC) cell line; assay: C-map query with the tone composite benchmark signature; assay type: cell-based, human; details: composite signature of Niacinamide, Sepiwhite, NAG, Hexamidine
Procedure: (§1) Individual experiments (referred to as batches) generally comprise 30 to 96 samples analyzed using Affymetrix GeneChip® technology platforms, containing 6 replicates of the vehicle control (e.g., DSMO), 2 replicate samples of a positive control that gives a strong reproducible effect in the cell type used, and samples of the test material/perturbagen. Replication of the test material is done in separate batches due to batch effects. In vitro testing was performed in 6-well plates to provide sufficient RNA for GeneChip® analysis (2-4 μg total RNA yield/well).
Human telomerized keratinocytes (tKC) were obtained from the University of Texas, Southwestern Medical Center, Dallas, Tex. tKC cells were grown in EpiLife® media with 1× Human Keratinocyte Growth Supplement (Invitrogen, Carlsbad, Calif.) on collagen I coated cell culture flasks and plates (Becton Dickinson, Franklin Lakes, N.J.). Keratinocytes were seeded into 6-well plates at 20,000 cells/cm^2 24 hours before chemical exposure. Human skin fibroblasts (BJ cell line from ATCC, Manassas, Va.) were grown in Eagle's Minimal Essential Medium (ATCC) supplemented with 10% fetal bovine serum (HyClone, Logan, Utah) in normal cell culture flasks and plates (Corning, Lowell, Mass.). BJ fibroblasts were seeded into 6-well plates at 12,000 cells/cm^2 24 hours before chemical exposure. […]

[2] = tested on: teleomerized human keratinocytes (tKC); assay: C-map query with the Retinoic Acid/Keratinocyte 200 benchmark signature; assay type: cell-based; details: Retinoic Acid Keratinocyte RA_200 signature
Procedure: as §1
Human telomerized keratinocytes (tKC) were obtained from the University of Texas, Southwestern Medical Center, Dallas, Tex. tKC cells were grown in EpiLife® media with 1× Human Keratinocyte Growth Supplement (Invitrogen, Carlsbad, Calif.) on collagen I coated cell culture flasks and plates (Becton Dickinson, Franklin Lakes, N.J.). Keratinocytes were seeded into 6-well plates at 20,000 cells/cm^2 24 hours before chemical exposure. […]
(a) Tert-keratinocytes (tKC) RA Signatures. […] Cells were treated with 1 uM tRA for 6 hr, tested in triplicate, with triplicate DMSO controls, and analyzed on HG-U133A GeneChips. […]

Structure (SMILES)	Basal skin tone (hyperpigmented spots; week 8)	NC2 Melanin evenness test (hyperpigmented spots; weeks 6 and 8)	spot area fraction color test (hyperpigmented spots; topical 2x a day, week 8)	connectivity to tone composite benchmark signature query [1]	average C-map score [2]
CC(=O)O.CC(=O)O.NC(=N\CCCCCC/N=C(N)/N=C(\N)Nc1ccc(Cl)cc1)/N=C(\N)Nc1ccc(Cl)cc1 [CD, Chlorhexidine Diacetate]	superiority	superiority to the vehicle	significantly fewer spots	top connectivity hit	
CC1=C(/C=C/C(C)=C/C=C/C(C)=C/C(=O)O)C(C)(C)CCC1 [Retinoic acid, all-trans-retinoic acid]					highest score
